{"source": "patent US20230085307A1", "about": "“PYRIDAZINONE COMPOUND AND HERBICIDE” (NISSAN CHEMICAL CORPORATION, priority 2019, published 2023)", "key": {"[1]": {"tested_on": "velvetleaf", "assay": "Test Example 4: herbicidal effect by soil treatment (Table 19, symbol M)", "assay_type": "in vivo, velvetleaf (Abutilon theophrasti)", "details": "amount of applied herbicide 320 g/ha", "in_short": "(§1)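 Seeds were sown in sterilized diluvial soil and covered with about 1.5 cm of soil. An emulsion formulation diluted with water to a predetermined herbicide amount was sprayed evenly onto the soil surface. Plants grew in a greenhouse at 25° C. to 30° C., and the effect was scored three weeks after application using criteria from an earlier test.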"}, "[2]": {"tested_on": "lambsquarters", "assay": "Test Example 4: herbicidal effect by soil treatment (Table 19, symbol O)", "assay_type": "in vivo, lambsquarters (Chenopodium album)", "details": "amount of applied herbicide 320 g/ha", "in_short": "as §1"}, "[3]": {"tested_on": "blackgrass", "assay": "Test Example 5: herbicidal effect by foliage application, plastic box (Table 20, symbol J)", "assay_type": "in vivo, blackgrass (Alopecurus myosuroides)", "details": "320 g/ha, foliage application after 14-day growth, evaluated three weeks after application", "in_short": "(§2)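 Plants sown in sterilized diluvial soil and grown 14 days in a greenhouse at 25° C to 30° C, then sprayed on the foliage with the compound's emulsion diluted in water to a predetermined herbicide amount. Injury to weeds and crops scored three weeks after application on a visual rating scale.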"}, "[4]": {"tested_on": "blackgrass", "assay": "Test Example 4: herbicidal effect by soil treatment (Table 19, symbol J)", "assay_type": "in vivo, blackgrass (Alopecurus myosuroides)", "details": "amount of applied herbicide 320 g/ha", "in_short": "as §1"}, "[5]": {"tested_on": "barnyard grass", "assay": "Test Example 4: herbicidal effect by soil treatment (Table 19, symbol H)", "assay_type": "in vivo, barnyard grass (Echinochloa crus-galli)", "details": "amount of applied herbicide 320 g/ha", "in_short": "as §1"}, "[6]": {"tested_on": "barnyard grass", "assay": "Test Example 5: herbicidal effect by foliage application, plastic box (Table 20, symbol H)", "assay_type": "in vivo, barnyard grass (Echinochloa crus-galli)", "details": "320 g/ha, foliage application after 14-day growth, evaluated three weeks after application", "in_short": "as §2"}, "[7]": {"tested_on": "barnyard grass", "assay": "Test Example 3: herbicidal effect by foliage application, Wagner pot (Table 18, symbol H)", "assay_type": "in vivo, barnyard grass (Echinochloa crus-galli)", "details": "320 g/ha", "in_short": "(§3)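 Plants were sown in alluvial soil held under 0.1–0.5 cm standing water and grown 14 days in a greenhouse at 25–30 °C. An emulsifiable formulation, water-diluted to the set dose, was then sprayed onto the foliage, and effects were scored three weeks later using previously defined criteria.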"}, "[8]": {"tested_on": "velvetleaf", "assay": "Test Example 5: herbicidal effect by foliage application, plastic box (Table 20, symbol M)", "assay_type": "in vivo, velvetleaf (Abutilon theophrasti)", "details": "320 g/ha, foliage application after 14-day growth, evaluated three weeks after application", "in_short": "as §2"}, "[9]": {"tested_on": "redroot pigweed", "assay": "Test Example 5: herbicidal effect by foliage application, plastic box (Table 20, symbol N)", "assay_type": "in vivo, redroot pigweed (Amaranthus retroflexus)", "details": "320 g/ha, foliage application after 14-day growth, evaluated three weeks after application", "in_short": "as §2"}, "[10]": {"tested_on": "oval-leafed pondweed", "assay": "Test Example 2: herbicidal activity, application during weed generation under submerged conditions (Table 17, symbol C)", "assay_type": "in vivo, oval-leafed pondweed (Monochoria vaginalis)", "details": "AAH 320 g/ha; application during weed generation, submerged conditions", "in_short": "(§4)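 Effect on each weed is rated three weeks post-treatment, using the same scoring criteria as the preceding test. Plants grow from mixed-sown seed in flooded alluvial soil (4 cm water) at 25° C. to 30° C., and are treated at one to two leaves with diluted emulsion dropped onto the water.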"}, "[11]": {"tested_on": "persian speedwell", "assay": "Test Example 5: herbicidal effect by foliage application, plastic box (Table 20, symbol R)", "assay_type": "in vivo, Persian speedwell (Veronica persica)", "details": "320 g/ha, foliage application after 14-day growth, evaluated three weeks after application", "in_short": "as §2"}, "[12]": {"tested_on": "redroot pigweed", "assay": "Test Example 4: herbicidal effect by soil treatment (Table 19, symbol N)", "assay_type": "in vivo, redroot pigweed (Amaranthus retroflexus)", "details": "amount of applied herbicide 320 g/ha", "in_short": "as §1"}, "[13]": {"tested_on": "windgrass", "assay": "Test Example 4: herbicidal effect by soil treatment (Table 19, symbol L)", "assay_type": "in vivo, windgrass (Apera spica-venti)", "details": "amount of applied herbicide 320 g/ha", "in_short": "as §1"}, "[14]": {"tested_on": "Italian ryegrass", "assay": "Test Example 4: herbicidal effect by soil treatment (Table 19, symbol K)", "assay_type": "in vivo, Italian ryegrass (Lolium multiflorum)", "details": "amount of applied herbicide 320 g/ha", "in_short": "as §1"}, "[15]": {"tested_on": "southern crabgrass", "assay": "Test Example 5: herbicidal effect by foliage application, plastic box (Table 20, symbol F)", "assay_type": "in vivo, southern crabgrass (Digitaria ciliaris)", "details": "320 g/ha, foliage application after 14-day growth, evaluated three weeks after application", "in_short": "as §2"}, "[16]": {"tested_on": "chickweed", "assay": "Test Example 5: herbicidal effect by foliage application, plastic box (Table 20, symbol P)", "assay_type": "in vivo, common chickweed (Stellaria media)", "details": "320 g/ha, foliage application after 14-day growth, evaluated three weeks after application", "in_short": "as §2"}, "[17]": {"tested_on": "southern crabgrass", "assay": "Test Example 4: herbicidal effect by soil treatment (Table 19, symbol F)", "assay_type": "in vivo, southern crabgrass (Digitaria ciliaris)", "details": "amount of applied herbicide 320 g/ha", "in_short": "as §1"}, "[18]": {"tested_on": "late watergrass", "assay": "Test Example 2: herbicidal activity, application during weed generation under submerged conditions (Table 17, symbol A)", "assay_type": "in vivo, late watergrass (Echinochloa oryzicola)", "details": "AAH 320 g/ha; application during weed generation, submerged conditions", "in_short": "as §4"}, "[19]": {"tested_on": "Chinese sprangletop", "assay": "Test Example 3: herbicidal effect by foliage application, Wagner pot (Table 18, symbol D)", "assay_type": "in vivo, chinese sprangletop (Leptochloa chinensis)", "details": "320 g/ha", "in_short": "as §3"}, "[20]": {"tested_on": "green foxtail", "assay": "Test Example 5: herbicidal effect by foliage application, plastic box (Table 20, symbol G)", "assay_type": "in vivo, green foxtail (Setaria viridis)", "details": "320 g/ha, foliage application after 14-day growth, evaluated three weeks after application", "in_short": "as §2"}, "[21]": {"tested_on": "chickweed", "assay": "Test Example 4: herbicidal effect by soil treatment (Table 19, symbol P)", "assay_type": "in vivo, common chickweed (Stellaria media)", "details": "amount of applied herbicide 320 g/ha", "in_short": "as §1"}, "[22]": {"tested_on": "rice flat sedge", "assay": "Test Example 3: herbicidal effect by foliage application, Wagner pot (Table 18, symbol E)", "assay_type": "in vivo, rice flat sedge (Cyperus iria)", "details": "320 g/ha", "in_short": "as §3"}, "[23]": {"tested_on": "windgrass", "assay": "Test Example 5: herbicidal effect by foliage application, plastic box (Table 20, symbol L)", "assay_type": "in vivo, windgrass (Apera spica-venti)", "details": "320 g/ha, foliage application after 14-day growth, evaluated three weeks after application", "in_short": "as §2"}, "[24]": {"tested_on": "lambsquarters", "assay": "Test Example 5: herbicidal effect by foliage application, plastic box (Table 20, symbol O)", "assay_type": "in vivo, lambsquarters (Chenopodium album)", "details": "320 g/ha, foliage application after 14-day growth, evaluated three weeks after application", "in_short": "as §2"}, "[25]": {"tested_on": "wild oat", "assay": "Test Example 4: herbicidal effect by soil treatment (Table 19, symbol I)", "assay_type": "in vivo, wild oat (Avena fatua)", "details": "amount of applied herbicide 320 g/ha", "in_short": "as §1"}, "[26]": {"tested_on": "wild oat", "assay": "Test Example 5: herbicidal effect by foliage application, plastic box (Table 20, symbol I)", "assay_type": "in vivo, wild oat (Avena fatua)", "details": "320 g/ha, foliage application after 14-day growth, evaluated three weeks after application", "in_short": "as §2"}, "[27]": {"tested_on": "Italian ryegrass", "assay": "Test Example 5: herbicidal effect by foliage application, plastic box (Table 20, symbol K)", "assay_type": "in vivo, Italian ryegrass (Lolium multiflorum)", "details": "320 g/ha, foliage application after 14-day growth, evaluated three weeks after application", "in_short": "as §2"}, "[28]": {"tested_on": "Japanese bulrush", "assay": "Test Example 2: herbicidal activity, application during weed generation under submerged conditions (Table 17, symbol B)", "assay_type": "in vivo, Japanese bulrush (Schoenoplectus juncoides)", "details": "AAH 320 g/ha; application during weed generation, submerged conditions", "in_short": "as §4"}, "[29]": {"tested_on": "green foxtail", "assay": "Test Example 4: herbicidal effect by soil treatment (Table 19, symbol G)", "assay_type": "in vivo, green foxtail (Setaria viridis)", "details": "amount of applied herbicide 320 g/ha", "in_short": "as §1"}, "[30]": {"tested_on": "persian speedwell", "assay": "Test Example 4: herbicidal effect by soil treatment (Table 19, symbol R)", "assay_type": "in vivo, Persian speedwell (Veronica persica)", "details": "amount of applied herbicide 320 g/ha", "in_short": "as §1"}}, "data": [{"smiles": "CCCC(=O)Oc1c(C)nn(C)c(=O)c1-c1c(-c2ccc(F)cc2)sc2c(Cl)cccc12", "note": "[4-016]", "values": [{"measurement": "Herbicidal effect by soil treatment, M: velvetleaf", "setting": "[1]", "result": "0 (Herbicidal rate of 5% or less (almost no effect))"}, {"measurement": "Herbicidal effect by soil treatment, O: lambsquarters", "setting": "[2]", "result": "1 (Herbicidal rate of 5% or more and less than 20%)"}, {"measurement": "herbicidal effect on J: blackgrass (evaluation grade 0-5)", "setting": "[3]", "result": "0 (Herbicidal rate of 5% or less (almost no effect))"}, {"measurement": "Herbicidal effect by soil treatment, J: blackgrass", "setting": "[4]", "result": "0 (Herbicidal rate of 5% or less (almost no effect))"}, {"measurement": "Herbicidal effect by soil treatment, H: barnyard grass", "setting": "[5]", "result": "1 (Herbicidal rate of 5% or more and less than 20%)"}, {"measurement": "herbicidal effect on H: barnyard grass (evaluation grade 0-5)", "setting": "[6]", "result": "0 (Herbicidal rate of 5% or less (almost no effect))"}, {"measurement": "herbicidal effect on barnyard grass (H)", "setting": "[7]", "result": "3 (Herbicidal rate of 40% or more and less than 70%)"}, {"measurement": "herbicidal effect on M: velvetleaf (evaluation grade 0-5)", "setting": "[8]", "result": "5 (Herbicidal rate of 90% or more (almost completely withered))"}, {"measurement": "herbicidal effect on N: redroot pigweed (evaluation grade 0-5)", "setting": "[9]", "result": "3 (Herbicidal rate of 40% or more and less than 70%)"}, {"measurement": "herbicidal effect rating, C: oval-leafed pondweed", "setting": "[10]", "result": "0 (Herbicidal rate of 5% or less (almost no effect))"}, {"measurement": "herbicidal effect on R: persian speedwell (evaluation grade 0-5)", "setting": "[11]", "result": "3 (Herbicidal rate of 40% or more and less than 70%)"}, {"measurement": "Herbicidal effect by soil treatment, N: redroot pigweed", "setting": "[12]", "result": "3 (Herbicidal rate of 40% or more and less than 70%)"}, {"measurement": "Herbicidal effect by soil treatment, L: windgrass", "setting": "[13]", "result": "0 (Herbicidal rate of 5% or less (almost no effect))"}, {"measurement": "Herbicidal effect by soil treatment, K: Italian ryegrass", "setting": "[14]", "result": "0 (Herbicidal rate of 5% or less (almost no effect))"}, {"measurement": "herbicidal effect on F: southern crabgrass (evaluation grade 0-5)", "setting": "[15]", "result": "0 (Herbicidal rate of 5% or less (almost no effect))"}, {"measurement": "herbicidal effect on P: chickweed (evaluation grade 0-5)", "setting": "[16]", "result": "5 (Herbicidal rate of 90% or more (almost completely withered))"}, {"measurement": "Herbicidal effect by soil treatment, F: southern crabgrass", "setting": "[17]", "result": "2 (Herbicidal rate of 20% or more and less than 40%)"}, {"measurement": "herbicidal effect rating, A: late watergrass", "setting": "[18]", "result": "2 (Herbicidal rate of 20% or more and less than 40%)"}, {"measurement": "herbicidal effect on Chinese sprangletop (D)", "setting": "[19]", "result": "5 (Herbicidal rate of 90% or more (almost completely withered))"}, {"measurement": "herbicidal effect on G: green foxtail (evaluation grade 0-5)", "setting": "[20]", "result": "0 (Herbicidal rate of 5% or less (almost no effect))"}, {"measurement": "Herbicidal effect by soil treatment, P: chickweed", "setting": "[21]", "result": "1 (Herbicidal rate of 5% or more and less than 20%)"}, {"measurement": "herbicidal effect on rice flat sedge (E)", "setting": "[22]", "result": "4 (Herbicidal rate of 70% or more and less than 90%)"}, {"measurement": "herbicidal effect on L: windgrass (evaluation grade 0-5)", "setting": "[23]", "result": "5 (Herbicidal rate of 90% or more (almost completely withered))"}, {"measurement": "herbicidal effect on O: lambsquarters (evaluation grade 0-5)", "setting": "[24]", "result": "1 (Herbicidal rate of 5% or more and less than 20%)"}, {"measurement": "Herbicidal effect by soil treatment, I: wild oat", "setting": "[25]", "result": "0 (Herbicidal rate of 5% or less (almost no effect))"}, {"measurement": "herbicidal effect on I: wild oat (evaluation grade 0-5)", "setting": "[26]", "result": "3 (Herbicidal rate of 40% or more and less than 70%)"}, {"measurement": "herbicidal effect on K: Italian ryegrass (evaluation grade 0-5)", "setting": "[27]", "result": "0 (Herbicidal rate of 5% or less (almost no effect))"}, {"measurement": "herbicidal effect rating, B: Japanese bulrush", "setting": "[28]", "result": "0 (Herbicidal rate of 5% or less (almost no effect))"}, {"measurement": "Herbicidal effect by soil treatment, G: green foxtail", "setting": "[29]", "result": "3 (Herbicidal rate of 40% or more and less than 70%)"}, {"measurement": "Herbicidal effect by soil treatment, R: persian speedwell", "setting": "[30]", "result": "0 (Herbicidal rate of 5% or less (almost no effect))"}]}]}
